This is an account of results in patent US20260274895A1, “DE NOVO DESIGNED MEMBRANE-TRAVERSING AND ORALLY BIOAVAILABLE MACROCYCLES” (UNIVERSITY OF WASHINGTON, priority 2022, published 2026).

For the series the following is noted: for PAMPA_Papp_Avg (apparent permeability): PAMPA.

Where a SMILES comes first, the peptide text is derived from it. [ ]: non-standard residue; d: D form. NMeF = CN[C@@H](Cc1ccccc1)C(=O)O; dNMeF = CN[C@H](Cc1ccccc1)C(=O)O; NMeL = CN[C@@H](CC(C)C)C(=O)O; dNMeL = CN[C@H](CC(C)C)C(=O)O; NMeM = CN[C@@H](CCSC)C(=O)O; NMeV = CN[C@H](C(=O)O)C(C)C; Nle = CCCC[C@H](N)C(=O)O; dNMeA = CN[C@H](C)C(=O)O; Aib = CC(C)(N)C(=O)O

With `CC(C)C[C@@H]1NC(=O)[C@H](CC(C)C)N(C)C(=O)[C@H]2CCCN2C(=O)[C@@H](C)NC(=O)[C@@H](C)N(C)C(=O)[C@@H](C(C)C)NC(=O)[C@@H](CC(C)C)N(C)C(=O)[C@@H]2CCCN2C1=O` [Design D8.30, ap*LLP*lv*a] (cyclo(LP[dNMeL][dV][dNMeA][dA][dP][NMeL])), the “PAMPA_Papp_Avg (apparent permeability)” value came out at 4.32 ×10⁻⁶ cm/s.

Regarding `CC(C)C[C@@H]1C(=O)N[C@H](C(C)C)C(=O)N[C@H](C)C(=O)N2CCC[C@@H]2C(=O)N(C)[C@H](CC(C)C)C(=O)N[C@H](C(C)C)C(=O)N[C@H](C)C(=O)N2CCC[C@@H]2C(=O)N1C` [Design D8.31, ap*lvap*lv] (cyclo([dA][dP][dNMeL][dV][dA][dP][dNMeL][dV])), the “membrane permeability in PAMPA (in words)” value is “membrane permeable”.

Regarding `CC[C@H](C)[C@@H]1NC(=O)[C@@H](CC(C)C)N(C)C(=O)[C@@H]2CCCN2C(=O)[C@H](C(C)C)NC(=O)C(C)(C)NC(=O)[C@H](CC(C)C)NC(=O)C(C)(C)NC(=O)[C@@H]2CCCN2C(=O)[C@H]2CCCN2C1=O` [Design D9.1, pPBLBVP*lI] (cyclo([Aib]L[Aib]VP[dNMeL]I[dP]P)), the “PAMPA_Papp_Avg (apparent permeability)” value came out at 1.59 ×10⁻⁶ cm/s.

With `CC[C@@H](C)[C@H]1NC(=O)[C@H](CC(C)C)NC(=O)[C@@H](CC(C)C)NC(=O)[C@H](C(C)C)NC(=O)[C@@H](Cc2ccccc2)N(C)C(=O)[C@@H]2CCCN2C(=O)[C@@H](CC(C)C)NC(=O)[C@H](CC(C)C)N(C)C(=O)[C@H]2CCCN2C1=O` [Design D9.3, Lip*LlP*fVl] (cyclo(L[dI][dP][NMeL][dL]P[dNMeF]V[dL])), the “PAMPA_Papp_Avg (apparent permeability)” value came to 2.33 ×10⁻⁶ cm/s.

`CC[C@H](C)[C@@H]1NC(=O)[C@H](Cc2ccccc2)N(C)C(=O)[C@H](CC(C)C)N(C)C(=O)[C@@H](C(C)C)NC(=O)[C@@H](C)NC(=O)[C@@H]2CCCN2C(=O)[C@@H](CC(C)C)NC(=O)[C@@H]2CCCN2C(=O)[C@H](C)NC1=O` [Design D9.6, Pav*L*FIAPl] (cyclo(AP[dL]P[dA][dV][NMeL][NMeF]I)): the “PAMPA_Papp_Avg (apparent permeability)” value came to 1.63 ×10⁻⁶ cm/s.

With `CC(C)C[C@H]1NC(=O)[C@@H]2CCCN2C(=O)[C@@H](C(C)C)NC(=O)[C@@H](C)N(C)C(=O)[C@@H](C(C)C)NC(=O)[C@@H]2CCCN2C(=O)[C@@H](Cc2ccccc2)NC(=O)[C@H](CC(C)C)N(C)C(=O)[C@@H](C(C)C)NC1=O` [Design D9.9, Pv*avPlv*Lf] (cyclo([NMeL][dF]P[dV][dNMeA][dV]P[dL][dV])), the “PAMPA_Papp_Avg (apparent permeability)” value was 3.51 ×10⁻⁶ cm/s.

As for `CC[C@H](C)[C@@H]1NC(=O)[C@@H](CC(C)C)N(C)C(=O)[C@H](CC(C)C)N(C)C(=O)[C@@H](C)N(C)C(=O)[C@@H](Cc2ccccc2)NC(=O)[C@H](C(C)C)NC(=O)[C@@H](C)NC(=O)[C@@H]2CCCN2C(=O)[C@H]2CCCN2C1=O` [Design D9.10, Vf*a*L*lIpPa] (cyclo([dA]V[dF][dNMeA][NMeL][dNMeL]I[dP]P)), the “PAMPA_Papp_Avg (apparent permeability)” value turned out to be 0.826 ×10⁻⁶ cm/s.

Regarding `CC[C@@H](C)[C@H]1NC(=O)[C@H]2CCCN2C(=O)[C@H]([C@@H](C)CC)NC(=O)[C@H](CC(C)C)N(C)C(=O)[C@H]2CCCN2C(=O)[C@@H]2CCCN2C(=O)[C@H](Cc2ccccc2)N(C)C(=O)[C@H](Cc2ccccc2)NC(=O)[C@H]([C@@H](C)CC)NC1=O` [Design D9.13, piIF*FPp*LI] (cyclo(F[NMeF]P[dP][NMeL]I[dP][dI]I)), the “PAMPA_Papp_Avg (apparent permeability)” value is 3.37 ×10⁻⁶ cm/s.

Take `CC(C)C[C@@H]1NC(=O)[C@H]2CCCN2C(=O)[C@@H](CC(C)C)NC(=O)[C@@H](CC(C)C)NC(=O)[C@@H](CC(C)C)N(C)C(=O)[C@H](C(C)C)NC(=O)[C@@H](C)NC(=O)[C@@H](C)N(C)C(=O)[C@@H]2CCCN2C1=O` [Design D9.16, P*aaV*lllpL] (cyclo(LP[dNMeA][dA]V[dNMeL][dL][dL][dP])): the “membrane permeability in PAMPA (in words)” value is reported as “significant permeability”.

In the case of `CC(C)C[C@@H]1C(=O)N[C@H](C(C)C)C(=O)N(C)[C@@H](C(C)C)C(=O)N2CCC[C@H]2C(=O)N2CCC[C@@H]2C(=O)N[C@@H](C)C(=O)N(C)[C@@H](Cc2ccccc2)C(=O)N(C)[C@H](CC(C)C)C(=O)N[C@H](C)C(=O)N1C` [Design D9.17, pA*F*la*lv*VP] (cyclo(A[NMeF][dNMeL][dA][dNMeL][dV][NMeV]P[dP])), the “PAMPA_Papp_Avg (apparent permeability)” value stood at 1.74 ×10⁻⁶ cm/s.

Consider `CC(C)C[C@@H]1C(=O)N(C)[C@H](CC(C)C)C(=O)N2CCC[C@H]2C(=O)N[C@H](CC(C)C)C(=O)N2CCC[C@@H]2C(=O)N2CCC[C@@H]2C(=O)N(C)[C@H](CC(C)C)C(=O)N[C@H](Cc2ccccc2)C(=O)N[C@@H](C)C(=O)N1C` [Design D9.18, A*l*lPlpp*lf] (cyclo(A[dNMeL][dNMeL]P[dL][dP][dP][dNMeL][dF])), for which the “PAMPA_Papp_Avg (apparent permeability)” value was found to be 1.76 ×10⁻⁶ cm/s.

`CC(C)C[C@@H]1NC(=O)[C@@H](CC(C)C)NC(=O)[C@@H](CC(C)C)N(C)C(=O)[C@@H](CC(C)C)N(C)C(=O)[C@H](C(C)C)NC(=O)[C@@H](C)N(C)C(=O)[C@@H]2CCCN2C(=O)[C@@H]2CCCN2C(=O)[C@@H](C)N(C)C1=O` [Design D9.19, P*aV*l*llL*aP] (cyclo(L[dNMeA]PP[dNMeA]V[dNMeL][dNMeL][dL])): the “PAMPA_Papp_Avg (apparent permeability)” value is 1.28 ×10⁻⁶ cm/s.

`CCCC[C@@H]1NC(=O)[C@H](C(C)C)NC(=O)[C@H]2CCCN2C(=O)[C@@H]2CCCN2C(=O)[C@H](C)NC(=O)[C@@H](C)N(C)C(=O)[C@@H](CC(C)C)N(C)C(=O)[C@@H](C(C)C)NC(=O)[C@@H]2CCCN2C1=O` [Design D9.21, APpVMPv*l*a] (cyclo(AP[dP]V[Nle]P[dV][dNMeL][dNMeA])): the “PAMPA_Papp_Avg (apparent permeability)” value is 0.294 ×10⁻⁶ cm/s.

With `CC(C)C[C@@H]1NC(=O)[C@@H]2CCCN2C(=O)[C@H]2CCCN2C(=O)[C@@H](C)N(C)C(=O)[C@@H](CC(C)C)N(C)C(=O)[C@H](C(C)C)NC(=O)[C@@H](C)N(C)C(=O)[C@H]2CCCN2C(=O)[C@@H]2CCCN2C1=O` [Design D9.22, p*aV*l*apPLP] (cyclo(LP[dP][dNMeA]V[dNMeL][dNMeA][dP]P)), the “PAMPA_Papp_Avg (apparent permeability)” value amounted to 0.189 ×10⁻⁶ cm/s.

As to `CC[C@@H](C)[C@H]1NC(=O)[C@@H](CC(C)C)NC(=O)[C@@H]2CCCN2C(=O)[C@H]2CCCN2C(=O)[C@@H](C(C)C)NC(=O)[C@H](C)NC(=O)[C@@H]2CCCN2C(=O)[C@@H]([C@H](C)CC)NC(=O)[C@@H](C)N(C)C1=O` [Design D9.23, i*aiPAVpPl] (cyclo([dL][dI][dNMeA][dI]PA[dV][dP]P)), the “PAMPA_Papp_Avg (apparent permeability)” value was determined as 0.141 ×10⁻⁶ cm/s.

Turning to `CSCC[C@H]1C(=O)N(C)[C@H](C)C(=O)N[C@H](CC(C)C)C(=O)N2CCC[C@@H]2C(=O)N2CCC[C@H]2C(=O)N[C@@H](CC(C)C)C(=O)N2CCC[C@H]2C(=O)N2CCC[C@@H]2C(=O)N[C@H](C(C)C)C(=O)N1C` [Design D9.24, pv*M*alpPLP] (cyclo(LP[dP][dV][NMeM][dNMeA][dL][dP]P)), the “PAMPA_Papp_Avg (apparent permeability)” value is 0.0869 ×10⁻⁶ cm/s.

For the molecule `CC(C)C[C@@H]1NC(=O)[C@H](Cc2ccccc2)N(C)C(=O)[C@H]2CCCN2C(=O)[C@@H](CC(C)C)NC(=O)[C@@H](CC(C)C)NC(=O)[C@H](C)NC(=O)[C@H]2CCCN2C(=O)[C@@H]2CCCN2C(=O)[C@@H](C(C)C)NC1=O` [Design D9.32, pAllp*FLvP] (cyclo(A[dL][dL][dP][NMeF]L[dV]P[dP])), the “PAMPA_Papp_Avg (apparent permeability)” value was 0.24 ×10⁻⁶ cm/s.
